Laboratory results reported in patent publication US8188003B2, “Method of inducing virus tolerance of plants” (BASF Aktiengesellschaft, priority 2005, dated 2012).

Legend:
[1] = tested on: TMV; experiment: Use example 3: leaf halves infiltrated, TMV infection 1 day after treatment, lesion area versus control; type: in vivo, tobacco plants (cultivar Xanthi-nc); conditions: 1 mM in 1% aqueous ethanol, evaluated after further 5 days
Experimental: (§1) Leaf halves of approx. 5-weeks-old tobacco plants (cultivar Xanthi-nc) were infiltrated with 1 mM active ingredient solution in 1% aqueous ethanol; the leaf halves of the controls were infiltrated with 1% aqueous ethanol.
(§2) Infection with TMV was carried our 1 day after treatment; the plants were evaluated after further 5 days. The data shown are the averages of the leaf areas which had died owing to viral attack (lesions) at the infection site on leaf halves treated with active ingredient or untreated leaf halves (controls):
(§3) Area of the lesions in comparison with the control: […]

[2] = tested on: TMV; experiment: Use example 5: spraying the leaves with active ingredient solutions, TMV infection 5 days after treatment, lesion area versus control; type: in vivo, tobacco plants (cultivar Xanthi-nc); conditions: 2 mM with universal wetter 1:1 (w/w), sprayed, evaluated after further 4 days
Experimental: In each case 2 mM active ingredient were dissolved in water with the aid of a universal wetter in the ratio 1:1 (w/w) and sprayed onto the leaf halves of 5-week-old tobacco plants (cultivar Xanthi-nc) (leaf halves of the controls were sprayed with dissolved wetter only).
as §2, with “out 5 days” for “our 1 day”, “the treatment, and” for “treatment;”, “4” for “5”
as §3

[3] = tested on: TMV; experiment: Use example 4: leaf halves infiltrated, TMV infection 2 days after treatment, lesion area versus control; type: in vivo, tobacco plants (cultivar Xanthi-nc); conditions: 1 mM in 1% aqueous ethanol, evaluated after further 5 days
Experimental: as §1
The procedure of use example 3 was followed, but infection was carried out 2 days after the treatment and the plants were evaluated after further 5 days.
as §3

[4] = tested on: tobacco mosaic virus (TMV, strain U1); experiment: Use example 2: one leaf half infiltrated with active ingredient solution, TMV infection, lesion diameter; type: in vivo, tobacco plants (Nicotinia tabacum cv. Xanthi-nc); conditions: after 5 days
Experimental: (§4) For the experiments, tobacco plants (Nicotinia tabacum cv. Xanthi-nc) were grown at 25° C., an atmospheric humidity of 59% and a daily photoperiod of 16 hours (150-200 μM quanta/s^−1/m^−2) for 4 to 5 weeks in potting compost (standard soil type ED 73). Some of the plants were fed once per week by adding a commercial house-plant fertilizer (10% total nitrogen, 9% phosphate, 7% potash) to the irrigation water at the recommended rate.
(§5) The formulated active ingredient used took the form of water-dispersible granules with an active ingredient content of 20%. The concentrations used in the experiments (0.01-10 mM) are based on the active ingredient content. To prevent distribution of the active ingredient in the entire plant, the stalks of plants where a leaf had been infiltrated were removed above the treated leaf, using a sterile surgical blade.
(§6) After the application of the active ingredient, and also after infection with the virus at a later time, the plants were left to stand in the growth cabinet.
(§7) The various pretreated tobacco plants were infected with tobacco mosaic virus (TMV, strain U1). […] Five to 7 days post-infection, the diameter of 10 to 20 lesions on the leaves was determined. […]
After 5 days, the diameter of the lesions on the leaves caused by TMV was determined in millimeters [mm].

[5] = tested on: tobacco mosaic virus (TMV, strain U1); experiment: Use example 1: active ingredient solution injected into tobacco leaves, TMV infection, lesion diameter; type: in vivo, tobacco plants (Nicotinia tabacum cv. Xanthi-nc); conditions: injected into leaf, infection 1 day after pretreatment, after 7 days, water control 3.55 mm
Experimental: as §4, §5, §6, §7
After 7 days, the diameter of the lesions on the leaves caused by TMV was determined in millimeters [mm].

[6] = tested on: TMV; experiment: Use example 6: plant growth and tolerance to viral infection of TMV-inoculated tomato plants after spray treatment; type: in vivo, Tomato plants (cultivar Gaucho)
Experimental: The experiments were performed in greenhouse of under appropriate growing conditions for tomatoes. Tomato plants (cultivar Gaucho) were grown in pots until development of the first two true leaves. Then the plantlets were sprayed with different concentrations of formulated Pyraclostrobin (compound I-5; commercial fungicide Cabrio Top® of BASF Aktiengesellschaft). These treatments were done either 120 hours before or following inoculation of the plantlets with TMV, representing protective and curative situation. The treatments were run with 5 replicates, each containing 3 plantlets. 30 days after last treatment the plants were analyzed for visual plant growth (altitude and dry mass) and chlorophyll content (photometric measurement of extracts). Also the virus titre was determined (ELISA).
Same letters indicate non significant differences (Tukey; P≦0.05).

Row | Compound | Area of the lesions in comparison with the control, Area in percent [1] | Area of the lesions in comparison with the control, Area in percent [2] | Area of the lesions in comparison with the control, Area In percent [3] | diameter of the lesions on the leaves caused by TMV (average), treated leaf zones ([4]; 0.5 mM, water control plants 3.2 mm) | diameter of the lesions on the leaves caused by TMV (average), treated leaf zones ([4]; 1 mM, water control plants 3.35 mm) | diameter of the lesions on the leaves caused by TMV (average) ([5]; 1 mM) | diameter of the lesions on the leaves caused by TMV (average) ([5]; 2.5 mM) | effect compared with untreated plants ([6]; Curative treatment) | effect on growth inhibition and loss of leaf chlorophyll caused by TMV infection ([6]; protective treatment)
1 | CNC(=O)/C(=N/OC)c1ccccc1CO/N=C(C)/C(=N/OC)C(/C)=N/OC [Compound V-16, orysastrobin] | 63.8% | – | – | – | – | – | – | – | –
2 | CNC(=O)/C(=N/OC)c1ccccc1COc1cc(C)ccc1C [II-3, dimoxystrobin] | 68.1% | 49.6% | 62.7% | – | – | – | – | – | –
3 | CO/C=C(/C(=O)OC)c1ccccc1Oc1cc(Oc2ccccc2C#N)ncn1 [VII-1, azoxystrobin] | 62.1% | 68.3% | 70.4% | – | – | – | – | – | –
4 | pyraclostrobin [Compound I-5] | 53.0% | – | – | 2.75 mm | 2.85 mm | 2.35 mm | 1.8 mm | no advantage compared with untreated plants | can prevent growth inhibition and loss of leaf chlorophyll caused by TMV infection
